The values below are quoted from earlier work in patent publication US7417156B2, “Orally active, antimalarial, anticancer, artemisinin-derived trioxane dimers” (Johns Hopkins University, priority 2002, dated 2008).

Series [1] deals with P. berghei. Particulars: P. berghei-infected mice; cited from earlier work.
The test system of series [2] is P388 leukemia. To be noted: NCI Report on NSC 369397; cited from earlier work.
Series [3] has as its system P. vivax and P. falciparum. Particulars: 2099 cases of malaria, different dosage forms; cited from earlier work.

In the case of `C[C@@H]1CC[C@H]2[C@@H](C)C(=O)O[C@@H]3O[C@]4(C)CC[C@@H]1[C@]32OO4` [Artemisinin], the SD90 in series [1] is 6.20 mg/kg. The activity in words entry in series [2] was “inactive”. Also, the clinical outcome in series [3] was “clinical cure of all patients”.
